Experimental data reported in patent US10105372B2, “Methods of treating obesity using antioxidant inflammation modulators” (REATA PHARMACEUTICALS, INC., priority 2010, dated 2018).
Where “and” joins values, the source holds several entries; their conditions need not be identical. Identical values can stand only once. Entries after “also recorded” stand apart in the source; their conditions may differ. Marks after values point to notes of the source that are not given here.

Key:
[1] = Phase 2 clinical trial, renal function, glycemic control, circulating endothelial cells; format: in vivo, human
Source text: See U.S. Patent Application Publication 2009/0326063A1, which is incorporated by reference herein in its entirety. […] In this study, the protocol stipulated that patient weights were to be taken at baseline (D−1=1 day before initiation of dosing), Day 28, and Day 56. Weight data were available for all but one patient who started the study (a baseline weight was not recorded for this patient). In the remaining patients, 14 of 17 had lost weight at Day 28 (mean weight loss was 1.6% of baseline weight) and 17 of 17 had lost weight at Day 56 (mean weight loss was 3.7% of baseline, with a median of 3.1%). […] Prior to initiation of treatment, basic clinical observations (e.g., weight, blood pressure, height) were recorded along with baseline values for serum creatinine, blood urea nitrogen, serum phosphorus, serum uric acid, angiotensin II, fasting glucose, hemoglobin A1c, circulating endothelial cells (CECs), and iNOS-positive CECs. […] Reductions of more than 10% were also observed in BUN, serum creatinine, uric acid, and urinary albumin creatinine ratio.

[2] = Phase 2 clinical trial, patient body weight and tolerability; format: in vivo, human
Method: See Example 1, below. […] In this study, the protocol stipulated that patient weights were to be taken at baseline (D−1=1 day before initiation of dosing), Day 28, and Day 56. […] In this study, the protocol stipulated that patient weights were to be taken at baseline (D−1=1 day before initiation of dosing), Day 28, and Day 56. […] Prior to initiation of treatment, basic clinical observations (e.g., weight, blood pressure, height) were recorded along with baseline values for serum creatinine, blood urea nitrogen, serum phosphorus, serum uric acid, angiotensin II, fasting glucose, hemoglobin A1c, circulating endothelial cells (CECs), and iNOS-positive CECs.

[3] = 12-month toxicity study, whole blood exposure; format: in vivo, cynomolgus monkeys; settings: Days 1 and 28; 30, 100 and 300 mg/kg/day oral gavage
Method: (§1) All the animals were healthy and within normal weights for their age at the start of the study. The dose levels were 0, 30/5, 100/30, and 300 mg/kg/day and administered at a dose volume of 3 mL per dose. The control group received the vehicle in the same manner as the treated groups. Just prior to administration, the test article for each animal was added to the syringe containing the vehicle for each animal and vortexed until thoroughly mixed to achieved the desired concentrations of 30, 100, and 300 mg/mL through Day 42 (Week 6). During administration, the syringe containing the test article preparation for each animal was pushed through the gavage tube. The 1 mL vehicle rinse was then added to the dosing syringe and administered. After administration of both volumes, a 5 mL flush of the vehicle was used to rinse the gavage tube and ensure that the entire amount of the test article was administered to the animal. […] Therefore, dose levels were adjusted so that different blood exposures could be examined. During Week 7 dosing for all animals was stopped for four days (Days 43 to 46). The initial dose levels of 30 and 100 mg/kg/day were reduced to 5 and 30 mg/kg/day, respectively, and dosing was resumed on Day 47 through Day 353. Individual doses were based on the most recent body weights.

Nrf2 = Nrf2 activity in blood cells in clinical trials; format: in vivo, human; settings: at therapeutic doses
Source text: One AIM, bardoxolone methyl (BARD), is in advanced clinical trials for the treatment of chronic kidney disease.

[4] = 12-month toxicity study, body weight; format: in vivo, cynomolgus monkeys; settings: for % gain / kg gained: pretest to Week 50
Method: as §1

[5] = Stratum 2, All Patients (n = 18), change

COC(=O)[C@]12CCC(C)(C)C[C@H]1[C@H]1C(=O)C=C3[C@@]4(C)C=C(C#N)C(=O)C(C)(C)[C@@H]4CC[C@@]3(C)[C@]1(C)CC2 [bardoxolone methyl]
CECs ([1]; Phase 2 study): Significant reductions
iNOS-positive CECs ([1]; Phase 2 study): Significant reductions
reduction in BUN ([1]; Phase 2 study): more than 10%
reduction in serum creatinine ([1]; Phase 2 study): more than 10%
reduction in uric acid ([1]; Phase 2 study): more than 10%
Patients with eGFR Increase ([1]; Stratum 2, All Patients (n = 18)): 89%
Blood Urea Nitrogen [1, 5]: −14.9%
Circulating Endothelial Cells [1, 5]: −34.8%^†
Creatinine Clearance [1, 5]: +38.2%^†
Phosphorus [1, 5]: −2.5%
Serum Creatinine [1, 5]: −17.5%**
Uric Acid [1, 5]: −13.3%^†
eGFR [1, 5]: +24.1%***
iNOS+ Circulating Endothelial Cells [1, 5]: −65.8%*
Hemoglobin A1c ([1]; Stratum 2, patients with BL ≥ 7.0%, change): −0.1%
eGFR increase ([1]; after 28 days of treatment): approximately 10%
eGFR increase compared to baseline ([1]; after 56 days of treatment): more than 20%
mean weight loss ([2]; Day 28): 1.6 % of baseline weight
patients who had lost weight at Day 28 ([2]; Day 28, 25 mg once per day): 14 of 17
mean weight loss ([2]; Day 56): 3.7 % of baseline
median weight loss ([2]; Day 56, of baseline): 3.1%
patients who had lost weight at Day 56 ([2]; Day 56, 25 mg/day 28 days then 75 mg/day 28 days): 17 of 17
patients who lost more than 2% of their baseline weight ([2]; between Day −1 and Day 56): all but three
Weight D28 ([2]; individual CKD/Type 2 diabetes patients, Day 28, 25 mg once per day oral): 80.7 kg and 75.7 kg and 108.9 kg (2×) and 80.3 kg and 112.9 kg and 78.9 kg and 88.5 kg and 104.3 kg and 169.3 kg and 52.6 kg and 83.5 kg and 159.7 kg and 114 kg and 92.1 kg and 89.9 kg and 88.0 kg
Percent Change D28/D-1 (weight) ([2]; individual patients, Day 28 vs baseline, 25 mg/day): 0.0% (2×) and −0.7% and −2.4% (2×) and −1.6% and −3.5% and −1.2% and −8.5% and −1.4% and −0.1% and −12.8% and −0.5% and 0.3% and −0.3% and −1.0% and −3.0%
Weight D56 ([2]; individual patients, Day 56, 25 mg/day 28 days then escalated to 75 mg/day 28 days): 75.7 kg and 74.4 kg and 107.0 kg and 78.5 kg and 97.1 kg and 108.0 kg and 111.1 kg and 77.1 kg and 88 kg and 102.1 kg and 165.9 kg and 52.2 kg and 80.3 kg and 157.9 kg and 110.4 kg and 87.1 kg
Weight D56 ([2]; individual patients, Day 56, start dose 25 mg, escalated dose N/A): 91.6 kg and 87.4 kg
Percent Change D56/D-1 (weight) ([2]; individual patients, Day 56 vs baseline, 25 mg/day then escalated to 75 mg/day): −6.2% and −2.4% and −4.1% and −3.8% and −6.9% and −3.2% and −2.8% and −10.6% and −2.0% and −2.1% and −13.4% and −4.3% and −0.8% and −3.5% and −1.0%
Percent Change D56/D-1 (weight) ([2]; individual patients, Day 56 vs baseline, start dose 25 mg, escalated dose N/A): −1.5% and −5.7%
Weight D28, Mean ([2]; mean of all patients, Day 28): 99.4 kg
Percent Change D28/D-1 (weight), Mean ([2]; mean of all patients, Day 28 vs baseline): −1.6%
Weight D56, Mean ([2]; mean of all patients, Day 56): 97.3 kg
Percent Change D56/D-1 (weight), Mean ([2]; mean of all patients, Day 56 vs baseline): −3.7%
tolerability ([2]; patients with Type 2 diabetes and CKD, 56 days): very well tolerated
exposure in whole blood samples [3]: no significant differences in exposure across the three dose levels
Nrf2 activity in blood cells (Nrf2): induces Nrf2 activity
Week 26 Weight ([4]; Females, 300 mg/kg/day): 2.552 kg
Week 50 Weight ([4]; Females, 300 mg/kg/day): 2.68 kg
% gain ([4]; Females, 300 mg/kg/day): 28.60%
kg gained ([4]; Females, 300 mg/kg/day): 0.596 kg
Week 26 Weight ([4]; Females, 30/5 mg/kg/day): 2.454 kg
Week 50 Weight ([4]; Females, 30/5 mg/kg/day): 2.608 kg
% gain ([4]; Females, 30/5 mg/kg/day): 26.05%
kg gained ([4]; Females, 30/5 mg/kg/day): 0.539 kg
Week 26 Weight ([4]; Females, 100/30 mg/kg/day): 2.293 kg
Week 50 Weight ([4]; Females, 100/30 mg/kg/day): 2.68 kg
% gain ([4]; Females, 100/30 mg/kg/day): 30.22%
kg gained ([4]; Females, 100/30 mg/kg/day): 0.622 kg
Week 26 Weight ([4]; Males, 300 mg/kg/day): 2.52 kg
Week 50 Weight ([4]; Males, 300 mg/kg/day): 2.808 kg
% gain ([4]; Males, 300 mg/kg/day): 31.15%
kg gained ([4]; Males, 300 mg/kg/day): 0.667 kg
Week 50 Weight ([4]; Males, 30/5 mg/kg/day): 2.975 kg
Week 26 Weight ([4]; Males, 30/5 mg/kg/day oral gavage): 2.567 kg
% gain ([4]; Males, 30/5 mg/kg/day): 39.80%
kg gained ([4]; Males, 30/5 mg/kg/day): 0.847 kg
Week 26 Weight ([4]; Males, 100/30 mg/kg/day): 2.464 kg
Week 50 Weight ([4]; Males, 100/30 mg/kg/day): 2.725 kg
% gain ([4]; Males, 100/30 mg/kg/day): 26.63%
kg gained ([4]; Males, 100/30 mg/kg/day): 0.573 kg
effect on body weight ([4]; healthy monkeys with normal body weights, all treated groups, 26 and 50 weeks): gained significant amounts of weight; also recorded: did not induce weight loss
